From patent US6995157B2, “Substituted 4,5-dihydro-1,2,4-triazin-3-ones, 1,2,4-triazin-3-ones, and their use as fungicides and insecticides” (priority 2000, dated 2006)

Legend:
Sphaerotheca fuliginea = details: in vivo
Pyricularia oryzae = assay type: in vivo; details: protectant, 300 g/ha, greenhouse, inoculated 1 day after spraying, rated six days after inoculation; 100 is total disease control, 0 is no disease control

SMILES	CPM percent control (Sphaerotheca fuliginea)	RB percent control (Pyricularia oryzae)
CCC#CCN1CC(c2ccc(Cl)cc2)=NN(C)C1=O [Compound 32]	75%	75%
CCCCCCCCCCN1N=C(c2ccc(Cl)cc2)C(OC)NC1=O (racemic) [Compound 17]	0%	80%
CN1N=C(c2ccc(Cl)cc2)CNC1=O [Compound 33]	0%	80%
O=C1NCC(c2ccc(Cl)cc2)=NN1CC(F)(F)F [Compound 19]	0%	75%
CCCCCn1nc(-c2ccc(OC)cc2)cnc1=O [Compound 34]	0%	85%
CN1CC(c2ccc(Cl)cc2)=NN(Cc2ccc(Cl)cc2)C1=O [Compound 30]		75%
Cn1nc(-c2ccc(Cl)cc2)cnc1=O [Compound 11]	0%	80%
CCC#CCn1nc(-c2ccc(Cl)cc2)cnc1=O [Compound 31]	50%	85%
C#CCN1N=C(c2ccc(Cl)cc2)CN(CCC)C1=O [Compound 28]	0%	50%
COC1NC(=O)N(CC(F)(F)F)N=C1c1ccc(Cl)cc1 (racemic) [Compound 20]	0%	80%
CN1CC(c2ccc(Cl)cc2)=NN(C#N)C1=O [Compound 27]	0%	50%
CCCCN1N=C(c2ccc(Cl)cc2)C(OC)NC1=O (centres unmarked) [Compound 3, 2-n-butyl-5-methoxy-6-(4-chlorophenyl)-4,5-dihydro-1,2,4-triazin-3-one]	0%	85%
O=C1NCC(c2ccc(Cl)cc2)=NN1c1ccccc1 [Compound 15]	0%	75%
CCCCCn1nc(-c2ccc(OC)cc2)c(-c2ccc(OC)cc2)nc1=O [Compound 8, 2-n-pentyl-5,6-bis-(4-methoxyphenyl)-1,2,4-triazin-3-one]	0%	50%
COC1NC(=O)N(C)N=C1c1ccc(Cl)cc1 (racemic) [Compound 12]	0%	80%
CCCCn1nc(-c2ccc(Cl)cc2)cnc1=O [Compound 4, 2-n-butyl-6-(4-chlorophenyl)-1,2,4-triazin-3-one]	0%	85%
CCCCCn1nc(-c2ccc(Cl)cc2)cnc1=O [Compound 2, 2-pentyl-6-(4-chlorophenyl)-1,2,4-triazin-3-one]	50%	85%
COC1NC(=O)N(C(C)(C)C)N=C1c1ccc(Cl)cc1 (racemic) [Compound 14]	50%	90%
CCCCCN1N=C(c2ccc(Cl)cc2)C(OC)NC1=O (centres unmarked) [Compound 1, 2-pentyl-5-methoxy-6-(4-chlorophenyl)-4,5-dihydro-1,2,4-triazin-3-one]	0%	85%
CS(=O)(=O)N1CC(c2ccc(Cl)cc2)=NN(c2ccccc2)C1=O [Compound 16]	0%	50%
COC1NC(=O)N(c2ccccc2)N=C1c1ccc(Cl)cc1 (racemic) [Compound 18]	80%	85%
CN1CC(c2ccccc2Cl)=NN(Cc2ccc(Cl)cc2)C1=O [Compound 29]		50%
CCCCCn1nc(-c2ccccc2)cnc1=O [Compound 10]	0%	80%
CC(C)(C)n1nc(-c2ccc(Cl)cc2)cnc1=O [Compound 13]	0%	85%
CCCCCN1N=C(c2ccccc2)C(OC)NC1=O (racemic) [Compound 9]	0%	85%
CCCCN1N=C(c2ccc(Cl)cc2)CN(S(C)(=O)=O)C1=O [Compound 5, 2-n-butyl-4-methanesulfonyl-6-(4-chlorophenyl)-4,5-dihydro-1,2,4-triazin-3-one]	90%	0%
